Measured values from ChEMBL document CHEMBL1201862, “PubChem BioAssay data set” (2004).
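Following 48 hours of exposure in 96-well plates, responses at five concentrations were used to interpolate endpoints linearly. At the GI50, growth is halved.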 Calls of active or inactive are those of the source. No stated cut-off is given here; in the data, active = GI50 up to about 1.1 µM and inactive = higher.

Columns and labels:
Assay in all cases: NCI tumour cell line growth inhibition, 48 h
PC-3 = system: PC-3
A549 = system: A549
SK-MEL-28 = system: SK-MEL-28
SW-620 = system: SW-620
RPMI-8226 = system: RPMI-8226
M14 = system: M14
A498 = system: A498
HOP-92 = system: HOP-92
HL-60 = system: HL-60
HOP-62 = system: HOP-62
RXF 393 = system: RXF 393
OVCAR-4 = system: OVCAR-4
UACC-257 = system: UACC-257
NCI-H522 = system: NCI-H522
HCC 2998 = system: HCC 2998
COLO 205 = system: COLO 205
NCI-H23 = system: NCI-H23
EKVX = system: EKVX
Hs-578T = system: Hs-578T
UO-31 = system: UO-31

Measured: GI50

O=C1c2c(nc3ccccc3c2-c2ccccc2)CN1Nc1ccccn1
inactive: PC-3 > 89.7 µM | A549 59.4 µM | SK-MEL-28 > 100 µM | SW-620 > 100 µM | RPMI-8226 76.9 µM | M14 > 100 µM | A498 5.32 µM | HOP-92 38.4 µM | HL-60 97.9 µM | HOP-62 72.6 µM | RXF 393 53 µM | OVCAR-4 > 80.7 µM | UACC-257 > 92 µM | NCI-H522 > 78.3 µM | HCC 2998 > 100 µM | COLO 205 > 100 µM | NCI-H23 86.5 µM | EKVX 69 µM | Hs-578T 21.2 µM | UO-31 13.8 µM

CCOC(=O)C1=CC(C)(C(=O)OCC)Nc2c(nc(N)[nH]c2=O)N1 (stereo unspecified)
inactive: PC-3 > 10 µM | A549 > 10 µM | SK-MEL-28 > 10 µM | SW-620 > 10 µM | RPMI-8226 > 10 µM | M14 > 10 µM | A498 > 10 µM | HOP-92 > 10 µM | HOP-62 > 10 µM | RXF 393 > 10 µM | OVCAR-4 > 10 µM | UACC-257 > 10 µM | NCI-H522 > 10 µM | HCC 2998 > 10 µM | COLO 205 > 10 µM | NCI-H23 > 10 µM | EKVX > 10 µM | Hs-578T > 10 µM | UO-31 > 10 µM

CC(=O)OC[C@@]12C[C@H]3C(=O)C(C)(C)C[C@H]3[C@]1(C)[C@@H](OC(C)=O)[C@]1(O)[C@H]([C@@H](OC(=O)c3ccccc3)[C@@H](C)[C@H]1OC(C)=O)[C@H]2OC(C)=O
inactive: PC-3 > 20 µM | SW-620 > 20 µM | M14 > 20 µM | A498 > 20 µM | HOP-92 > 20 µM | HL-60 4.92 µM | HOP-62 > 20 µM | RXF 393 > 20 µM | OVCAR-4 > 20 µM | UACC-257 > 20 µM | NCI-H522 > 20 µM | HCC 2998 > 20 µM | COLO 205 8.71 µM | NCI-H23 > 20 µM | EKVX > 20 µM | Hs-578T > 20 µM | UO-31 > 20 µM

Cc1nc(C(N)=S)sc1C(=O)CC(=O)C(=O)Nc1cccc(Cl)c1C
inactive: PC-3 > 100 µM | A549 > 100 µM | SK-MEL-28 > 100 µM | SW-620 > 100 µM | RPMI-8226 > 100 µM | M14 > 100 µM | A498 > 100 µM | HOP-92 > 100 µM | HL-60 > 100 µM | HOP-62 > 100 µM | RXF 393 > 100 µM | OVCAR-4 > 100 µM | UACC-257 > 100 µM | NCI-H522 > 100 µM | HCC 2998 > 100 µM | NCI-H23 > 100 µM | EKVX > 100 µM | Hs-578T > 100 µM | UO-31 > 100 µM

CC1=CC(=O)/C(=C/NC(=S)Nc2ccccc2)C(=O)O1
inactive: PC-3 > 100 µM | A549 > 100 µM | SW-620 > 100 µM | RPMI-8226 > 100 µM | M14 > 100 µM | A498 > 100 µM | HOP-92 > 100 µM | HL-60 > 100 µM | HOP-62 > 100 µM | RXF 393 40.7 µM | OVCAR-4 > 100 µM | UACC-257 > 100 µM | NCI-H522 53.3 µM | HCC 2998 > 100 µM | COLO 205 > 100 µM | NCI-H23 > 100 µM | EKVX > 100 µM | Hs-578T > 100 µM | UO-31 > 100 µM

[N-]=[N+]=NC1=CC(=O)c2cccc3cccc1c23
inactive: PC-3 16.6 µM | A549 32.4 µM | SK-MEL-28 33.3 µM | SW-620 17 µM | RPMI-8226 56.6 µM | M14 18.4 µM | A498 12.2 µM | HOP-92 18.4 µM | HL-60 > 100 µM | HOP-62 15.7 µM | RXF 393 16.8 µM | OVCAR-4 56.9 µM | UACC-257 31.7 µM | HCC 2998 38 µM | COLO 205 49.7 µM | NCI-H23 20.7 µM | Hs-578T 17.9 µM | UO-31 24.9 µM

Cc1cc2c3c(c1)S(=O)(=O)c1cc(Cl)ccc1N3CCC2
inactive: PC-3 88.1 µM | A549 > 100 µM | SK-MEL-28 > 100 µM | SW-620 > 100 µM | M14 > 100 µM | A498 > 100 µM | HOP-92 > 100 µM | HL-60 > 100 µM | HOP-62 76.7 µM | RXF 393 55.2 µM | OVCAR-4 64.3 µM | UACC-257 60.8 µM | HCC 2998 > 100 µM | COLO 205 > 100 µM | EKVX > 100 µM | Hs-578T 22 µM | UO-31 > 100 µM

CC(C)C1=CC23CCC4C(C)(C(=O)O)CCCC4(C)C2CC1C1C(=O)N(c2ccc(N4C(=O)C5C6CC7C8(C)CCCC(C)(C(=O)O)C8CCC7(C=C6C(C)C)C5C4=O)cc2)C(=O)C13 (stereo unspecified)
inactive: PC-3 3.2 µM | A549 6.1 µM | SK-MEL-28 4.49 µM | SW-620 8.41 µM | RPMI-8226 3.96 µM | M14 4.16 µM | A498 11.2 µM | HOP-92 14.7 µM | HL-60 3.4 µM | HOP-62 5.12 µM | RXF 393 11.7 µM | OVCAR-4 10.4 µM | NCI-H522 4.98 µM | HCC 2998 4.41 µM | COLO 205 3.47 µM | NCI-H23 3.79 µM | EKVX 4.09 µM | Hs-578T 6.22 µM | UO-31 18.5 µM

COc1cc2c(cc1OC)C(Cl)C(c1ccc(F)cc1)=C2Cl (stereo unspecified)
inactive: PC-3 12.4 µM | A549 14.9 µM | SK-MEL-28 17.3 µM | SW-620 12.3 µM | RPMI-8226 9.06 µM | M14 15.4 µM | A498 14.9 µM | HOP-92 9.08 µM | HL-60 5.68 µM | HOP-62 16.5 µM | RXF 393 15.4 µM | UACC-257 14.9 µM | NCI-H522 7.73 µM | HCC 2998 15.1 µM | COLO 205 16.6 µM | NCI-H23 11.8 µM | EKVX 7.19 µM | Hs-578T 11.7 µM | UO-31 13.5 µM

Fc1ccccc1-c1nn2c(C34CC5CC(CC(C5)C3)C4)nnc2s1
inactive: PC-3 > 100 µM | A549 > 100 µM | SK-MEL-28 > 100 µM | SW-620 > 100 µM | RPMI-8226 > 100 µM | M14 > 100 µM | A498 > 100 µM | HOP-92 > 100 µM | HOP-62 > 100 µM | RXF 393 > 100 µM | OVCAR-4 > 100 µM | UACC-257 > 100 µM | NCI-H522 > 100 µM | HCC 2998 > 100 µM | COLO 205 > 100 µM | NCI-H23 > 100 µM | EKVX > 100 µM | Hs-578T > 100 µM | UO-31 > 100 µM
